The test system of assay [1] is Plasmodium falciparum. Briefly: Antimalarial activity against chloroquine-resistant Plasmodium falciparum K1. Type of assay: functional, organism-based.
Assay [2] deals with Plasmodium falciparum. Briefly: Antimalarial activity against chloroquine-sensitive Plasmodium falciparum D6. The assay is classed as functional, organism-based.
Assay [3] deals with Plasmodium falciparum. Briefly: Antimalarial activity against chloroquine-resistant Plasmodium falciparum W2. Type of assay: functional, organism-based.
Assay [4] deals with Plasmodium falciparum. Briefly: Antimalarial activity against chloroquine-sensitive Plasmodium falciparum 3D7. The assay is classed as functional, organism-based.
Assay [5] has as its system Plasmodium falciparum. Briefly: Antimalarial activity against chloroquine-resistant Plasmodium falciparum […]. The assay is classed as functional, organism-based.
In the next assay the test system is Staphylococcus aureus. Nature of the assay: Antimicrobial activity against Staphylococcus aureus. The assay is classed as functional.
Another assay relates to Enterococcus faecalis. Briefly: Antimicrobial activity against Enterococcus faecalis. Type of assay: functional.

For orientation: IC50 means the concentration that gives 50% inhibition. The MIC is the lowest concentration found to suppress growth. Low values mean greater potency, high ones weaker potency.

In brackets after ≈: the same amount, converted by molar mass.

Compound `O=[N+]([O-])c1cccc(-n2cc(CNc3ccc4nc(-c5ccc(F)cc5)c(-c5ccc(F)cc5)nc4c3)nn2)c1` yielded an IC50 in the assay on Plasmodium falciparum [1] of 7.1 to 153 µM.

For `O=[N+]([O-])c1cccc(-n2cc(CN(Cc3cn(-c4cccc([N+](=O)[O-])c4)nn3)c3ccc4nc(-c5ccc(F)cc5)c(-c5ccc(F)cc5)nc4c3)nn2)c1`, the IC50 in the assay with Plasmodium falciparum [1] fell in the range of 9.76 to 3540 µM.

`Clc1ccc(OCc2cn(CCNc3ccnc4cc(Cl)ccc34)nn2)cc1`: the IC50 with Plasmodium falciparum [2] and in the assay on Plasmodium falciparum [3] was 0.9 to 11.5 µM in each case.

Consider `CC(C)c1ccc(OCc2cn(CCNc3ccnc4cc(Cl)ccc34)nn2)cc1`, for which the IC50 in the assay with Plasmodium falciparum [2] and with Plasmodium falciparum [3] was 0.9 to 11.5 µM throughout.

Turning to `COc1cccc(-n2cc(CN(Cc3cn(-c4cccc(OC)c4)nn3)c3ccc4nc(-c5ccccc5)c(-c5ccccc5)nc4c3)nn2)c1`, in the assay on Plasmodium falciparum [1], the IC50 was in the range of 9.76 to 3540 µM.

Take `O=C(c1cn(CCNc2ccnc3cc(Cl)ccc23)nn1)C1CCCCO1` (stereo not drawn): the IC50 in the assay on Plasmodium falciparum [2] and in the assay with Plasmodium falciparum [3] was 0.9 to 11.5 µM each time.

Take `OCc1cn(CCCNc2ccnc3cc(Cl)ccc23)nn1`: the IC50 in the assay on Plasmodium falciparum [2] and in the assay on Plasmodium falciparum [3] was 0.59 to 4.71 µM in each case.

In turn, `COc1ccc2cc3[n+](cc2c1OCc1cn(-c2ccc(S(=O)(=O)Nc4ccc([N+](=O)[O-])cc4)cc2)nn1)CCc1cc2c(cc1-3)OCO2` came in with an IC50 in the assay on Plasmodium falciparum [4] of 0.142 to 28 µM.

In the assay on Plasmodium falciparum [5], `Cc1nnc(Cn2cc(C(=O)NNC(=O)Nc3ccccc3)c(=O)c3cc(F)c(Cl)cc32)n1N` came in with an IC50 of 3.89 µM.

`FC(F)(F)c1cccc(-n2cc(CNc3ccc4nc(-c5ccccc5)c(-c5ccccc5)nc4c3)nn2)c1` returned an IC50 in the assay on Plasmodium falciparum [1] of 7.1 to 153 µM.

Regarding `CC(=O)c1ccc(OCc2cn(CCCNc3ccnc4cc(Cl)ccc34)nn2)cc1`, the IC50 is 0.59 µM in the assay with Plasmodium falciparum [2] and 1.14 µM in the assay on Plasmodium falciparum [3].

Regarding `CC[C@H]1OC(=O)C[C@@H](O)[C@H](C)C(O[C@@H]2O[C@H](C)[C@@H](O)[C@H](N(C)C)[C@H]2O)C(CC=O)C[C@@H](C)C(=N\OCc2cn(-c3cnc4ccccc4c3)nn2)/C=C/C(C)=C/[C@@H]1CO[C@@H]1O[C@H](C)[C@@H](O)[C@@H](OC)[C@H]1OC` (stereo partly drawn), the minimum inhibitory concentration (MIC) against Staphylococcus aureus and in the assay with Enterococcus faecalis was 0.5 to 1 µg/mL (≈ 0.502 to 1 µM) throughout. In addition, the IC50 in the assay with Plasmodium falciparum [1] turned out to be 2 µg/mL.

For the compound `Cc1ccc(OCc2cn(CCNc3ccnc4cc(Cl)ccc34)nn2)cc1C`, the IC50 in the assay on Plasmodium falciparum [2] and with Plasmodium falciparum [3] was 0.9 to 11.5 µM in each case.

Regarding `OC1(c2cn(CCCNc3ccnc4cc(Cl)ccc34)nn2)CCCCC1`, the IC50 in the assay on Plasmodium falciparum [2] and with Plasmodium falciparum [3] was 0.59 to 4.71 µM throughout.

On to `COc1ccc2cc3[n+](cc2c1OCc1cn(-c2ccc(S(=O)(=O)Nc4ccc(F)cc4)cc2)nn1)CCc1cc2c(cc1-3)OCO2`, for which, in the assay on Plasmodium falciparum [4], the IC50 is 0.142 to 28 µM.

`Cc1ccc(-n2cc(CN(Cc3cn(-c4ccc(C)cc4)nn3)c3ccc4nc(-c5ccc(F)cc5)c(-c5ccc(F)cc5)nc4c3)nn2)cc1` displayed an IC50 in the assay with Plasmodium falciparum [1] of 9.76 to 3540 µM.

For `Fc1ccc(-c2nc3ccc(NCc4cn(-c5ccc(F)cc5)nn4)cc3nc2-c2ccc(F)cc2)cc1`, the IC50 with Plasmodium falciparum [1] was in the range of 7.1 to 153 µM.

Regarding `O=[N+]([O-])c1ccc(OCc2cn(CCNc3ccnc4cc(Cl)ccc34)nn2)cc1`, the IC50 with Plasmodium falciparum [2] and with Plasmodium falciparum [3] was 0.9 to 11.5 µM each time.

In the case of `Cc1ccc(-n2cc(CN(Cc3cn(-c4ccc(C)cc4)nn3)c3ccc4nc(-c5ccccc5)c(-c5ccccc5)nc4c3)nn2)cc1`, in the assay on Plasmodium falciparum [1], the IC50 lay in the range of 9.76 to 3540 µM.

`COc1cccc(-n2cc(CNc3ccc4nc(-c5ccccc5)c(-c5ccccc5)nc4c3)nn2)c1` registered an IC50 with Plasmodium falciparum [1] of 7.1 to 153 µM.

For `COc1ccc2cc3[n+](cc2c1OCc1cn(-c2ccc(S(=O)(=O)N4CCN(C)CC4)cc2)nn1)CCc1cc2c(cc1-3)OCO2`, the half-maximal inhibitory concentration (IC50) in the assay on Plasmodium falciparum [4] lay in the range of 0.142 to 28 µM.

In the assay on Plasmodium falciparum [1], `c1ccc(-c2nc3ccc(N(Cc4cn(-c5ccccc5)nn4)Cc4cn(-c5ccccc5)nn4)cc3nc2-c2ccccc2)cc1` had an IC50 of 9.76 to 3540 µM.

In the assay on Plasmodium falciparum [1], `O=[N+]([O-])c1cccc(-n2cc(CNc3ccc4nc(-c5ccccc5)c(-c5ccccc5)nc4c3)nn2)c1` displayed an IC50 of 7.1 to 153 µM.

For the compound `COc1ccc2cc3[n+](cc2c1OCc1cn(-c2ccc(S(=O)(=O)Nc4ccc(Br)cc4)cc2)nn1)CCc1cc2c(cc1-3)OCO2`, the IC50 in the assay on Plasmodium falciparum [4] was 0.142 to 28 µM.

Turning to `COc1ccc(OCc2cn(CCNc3ccnc4cc(Cl)ccc34)nn2)cc1`, the IC50 in the assay with Plasmodium falciparum [2] and in the assay on Plasmodium falciparum [3] was 0.9 to 11.5 µM throughout.

For the compound `OC1(c2cn(CCNc3ccnc4cc(Cl)ccc34)nn2)CCCCC1`, the IC50 in the assay with Plasmodium falciparum [2] and in the assay on Plasmodium falciparum [3] was 0.9 to 11.5 µM throughout.

In the assay on Plasmodium falciparum [1], `Cc1ccc(-n2cc(CNc3ccc4nc(-c5ccccc5)c(-c5ccccc5)nc4c3)nn2)cc1` had an IC50 of 7.1 to 153 µM.

For `Fc1ccc(-c2nc3ccc(N(Cc4cn(-c5ccc(F)cc5)nn4)Cc4cn(-c5ccc(F)cc5)nn4)cc3nc2-c2ccc(F)cc2)cc1`, the IC50 with Plasmodium falciparum [1] is 9.76 to 3540 µM.

As to `Cc1ccc(OCc2cn(CCNc3ccnc4cc(Cl)ccc34)nn2)cc1`, the IC50 in the assay on Plasmodium falciparum [2] and in the assay with Plasmodium falciparum [3] was 0.9 to 11.5 µM each time.

For `COc1cccc(-n2cc(CN(Cc3cn(-c4cccc(OC)c4)nn3)c3ccc4nc(-c5ccc(F)cc5)c(-c5ccc(F)cc5)nc4c3)nn2)c1`, in the assay on Plasmodium falciparum [1], the IC50 was 9.76 to 3540 µM.

These data come from ChEMBL document CHEMBL4609974, “Triazole derivatives and their antiplasmodial and antimalarial activities” (Eur J Med Chem, 2019).
